Key:
[1] = system: Histamine-induced skin vascular permeability in rats; experiment: Histamine-induced skin vascular permeability in rats; assay type: in vivo; details: Rattus norvegicus, 4 h; Male Wistar rats, oral, dose of 3 mg/Kg, four hours after administration, compared with vehicle treated group
Protocol: Either one, four, eight or 24 hours later the rats were lightly anaesthetized with ether and a cutaneous reaction was induced by two intradermal injections of 50 μl of histamine (100 μg/ml) onto the back, followed by a intravenous injection of 3 ml/kg of Evan's Blue (5 mg/ml), both dissolved in saline. Sixty minutes later, the rats were killed by cervical dislocation and the back skin dissected free. The diameter (in millimetres) of the papule was measured in two directions and the area was calculated.

[2] = target: T1, histamine H1 receptor (Cavia porcellus, UniProt P31389); experiment: Histamine-H1 receptor binding assay; details: guinea pig cerebellum membranes, 0.7 nM [3H]-mepyramine, 30 min at 30° C.
T1 construct: performed in guinea pig cerebellum membranes as described previously; from tissue; host or cells: guinea pig cerebellum membranes
Protocol: (1) In vitro histamine H1 receptor binding assay, to measure the affinity of the compounds. […] Briefly, the membrane suspensions (160 μg/ml) were incubated at 30° C. with 0.7 nM [^3H]-mepyramine and different concentrations of the test compounds in a final volume of 250 μl. Binding reactions were terminated by filtration after 30 min of incubation and the bound radioactivity was determined. The non-specific binding was measured in the presence of 10 μM of promethazine. The affinity of each test compound to the receptor was determined by using at least six different concentrations run in duplicate. IC50 values were obtained by non-linear regression by use of SAS on a DEC AXP computer.

T1 sequence (P31389 whole entry): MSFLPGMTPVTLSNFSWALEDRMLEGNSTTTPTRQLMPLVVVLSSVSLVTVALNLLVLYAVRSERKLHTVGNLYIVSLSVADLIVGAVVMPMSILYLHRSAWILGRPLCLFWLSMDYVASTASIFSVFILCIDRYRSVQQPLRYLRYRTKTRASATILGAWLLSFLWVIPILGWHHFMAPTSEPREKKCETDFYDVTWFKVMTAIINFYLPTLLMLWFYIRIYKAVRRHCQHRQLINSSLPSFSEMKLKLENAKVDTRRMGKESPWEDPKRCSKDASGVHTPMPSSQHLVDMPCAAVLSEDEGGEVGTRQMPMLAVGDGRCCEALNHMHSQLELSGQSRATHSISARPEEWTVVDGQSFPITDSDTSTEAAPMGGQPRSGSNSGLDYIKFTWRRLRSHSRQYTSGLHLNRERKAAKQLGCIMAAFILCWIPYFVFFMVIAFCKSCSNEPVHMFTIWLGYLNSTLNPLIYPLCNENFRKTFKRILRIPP

| IC50 [2] [µM] | melting point [°C] | Structure (SMILES) | inhibition in vivo at 3 mg/kg [1] [%] |
| --- | --- | --- | --- |
| 0.235 | – | CCCCn1cc(C2CCN(CCOc3ccccc3C(=O)O)CC2)c2cccnc21 [Example 25, 2-{2-[4-(1-butyl-1H-pyrrolo[2,3-b]pyridin-3-yl)piperidin-1-yl]-ethoxy}-benzoic acid] | > 50 |
| 0.16 | – | CCOCCn1cc(C2CCN(CCOc3cc(OC)ccc3C(=O)O)CC2)c2cccnc21 [Example 36, 2-(2-{4-[1-(2-ethoxyethyl)-1H-pyrrolo[2,3-b]pyridin-3-yl]-piperidin-1-yl}-ethoxy)-4-methoxybenzoic acid] | > 50 |
| 0.07 | 81.6 to 83.3 | O=C(O)c1ccc(Cl)cc1OCCN1CCC(c2cn(Cc3ccoc3)c3ncccc23)CC1 [Example 44, 4-chloro-2-{2-[4-(1-furan-3-ylmethyl-1H-pyrrolo[2,3-b]pyridin-3-yl)-piperidin-1-yl]-ethoxy}-benzoic acid] | > 50 |
| 0.1 | – | CCCCn1cc(C2CCN(CCOc3cc(OC)ccc3C(=O)O)CC2)c2cccnc21 [Example 61, 2-{2-[4-(1-butyl-1H-pyrrolo[2,3-b]pyridin-3-yl)piperidin-1-yl]-ethoxy}-4-methoxybenzoic acid] | > 50 |

From US7622480B2, “Azaindolylpiperidine derivatives as antihistaminic and antiallergic agents” (Laboratorios Almirall S.A., priority 2002, dated 2009)
